Assay results: ChEMBL document CHEMBL3885881, “DrugMatrix”

Species: Rattus norvegicus
Test: DrugMatrix - Regimen: Daily Repeat
Type: toxicity, organism-based, Sprague-Dawley
Parameters: regimen Daily Repeat, gender Male, age 6-8 weeks
Conditions: in vivo, po, route oral GAVAGE, vehicle .5 % CMC; for ABSOLUTE BASOPHIL / ABSOLUTE EOSINOPHIL / ABSOLUTE LYMPHOCYTE / ABSOLUTE MONOCYTE / ABSOLUTE SEGMENTED NEUTROPHIL / BASOPHIL / EOSINOPHIL / ERYTHROCYTE COUNT / HEMATOCRIT / HEMOGLOBIN / LEUKOCYTE COUNT / LYMPHOCYTE / MEAN CORPUSCULAR HEMOGLOBIN / MEAN CORPUSCULAR HEMOGLOBIN CONCENTRATION / MEAN CORPUSCULAR VOLUME / MONOCYTE / NEUTROPHIL / NUCLEATED RED BLOOD CELLS / PLATELET COUNT: tissue Blood; for ALANINE AMINOTRANSFERASE / ALBUMIN / ALKALINE PHOSPHATASE / ASPARTATE AMINOTRANSFERASE / BLOOD UREA NITROGEN / CARBON DIOXIDE / CHLORIDE / CHOLESTEROL / CREATINE PHOSPHOKINASE / CREATININE / GLUCOSE / LACTATE DEHYDROGENASE / LIPASE / PHOSPHORUS / POTASSIUM / SODIUM / TOTAL BILIRUBIN / TOTAL PROTEIN / URIC ACID: tissue Plasma
[1] = 10 mg/kg, 120 h, dose level Low, time 5 day
[2] = 63 mg/kg, 72 h, dose level High, time 3 day
[3] = 63 mg/kg, 120 h, dose level High, time 5 day

Compound: COc1c(C)c2c(c(O)c1C/C=C(\C)CCC(=O)OCCN1CCOCC1)C(=O)OC2 [MYCOPHENOLATE MOFETIL]
- ABSOLUTE BASOPHIL [1]: 0 CELLS/uL
- ABSOLUTE EOSINOPHIL [1]: 90 CELLS/uL
- ABSOLUTE LYMPHOCYTE [1]: 13218.67 CELLS/uL
- ABSOLUTE MONOCYTE [1]: 116.67 CELLS/uL
- ABSOLUTE SEGMENTED NEUTROPHIL [1]: 1408 CELLS/uL
- BASOPHIL [1]: 0%
- EOSINOPHIL [1]: 0.67%
- ERYTHROCYTE COUNT [1]: 5.48 x10E6/uL
- HEMATOCRIT [1]: 34.27%
- HEMOGLOBIN [1]: 13.7 G/DL
- LEUKOCYTE COUNT [1]: 14.83 x10E3/uL
- LYMPHOCYTE [1]: 89.33%
- MEAN CORPUSCULAR HEMOGLOBIN [1]: 25 pg
- MEAN CORPUSCULAR HEMOGLOBIN CONCENTRATION [1]: 40.03 G/DL
- MEAN CORPUSCULAR VOLUME [1]: 62.53 fL
- MONOCYTE [1]: 0.67%
- NEUTROPHIL [1]: 9.33%
- NUCLEATED RED BLOOD CELLS [1]: 0 /100WBC
- PLATELET COUNT [1]: 1214 x10E3/uL
- ALANINE AMINOTRANSFERASE [1]: 55.67 u/L
- ALBUMIN [1]: 4.17 G/DL
- ALKALINE PHOSPHATASE [1]: 364.33 u/L
- ASPARTATE AMINOTRANSFERASE [1]: 99.67 u/L
- BLOOD UREA NITROGEN [1]: 13.67 mg/dL
- CARBON DIOXIDE [1]: 31.33 mmol/L
- CHLORIDE [1]: 102.67 MEQ/L
- CHOLESTEROL [1]: 61.67 mg/dL
- CREATINE PHOSPHOKINASE [1]: 341.67 u/L
- CREATININE [1]: 0.2 mg/dL
- GLUCOSE [1]: 141 mg/dL
- LACTATE DEHYDROGENASE [1]: 409.33 u/L
- LIPASE [1]: 9.67 u/L
- PHOSPHORUS [1]: 11.87 mg/dL
- POTASSIUM [1]: 6.19 MEQ/L
- SODIUM [1]: 144.83 MEQ/L
- TOTAL BILIRUBIN [1]: 0.1 mg/dL
- TOTAL PROTEIN [1]: 5.8 G/DL
- URIC ACID [1]: 1.37 mg/dL
- ABSOLUTE BASOPHIL [2]: 0 CELLS/uL
- ABSOLUTE EOSINOPHIL [2]: 0 CELLS/uL
- ABSOLUTE LYMPHOCYTE [2]: 8638 CELLS/uL
- ABSOLUTE MONOCYTE [2]: 62 CELLS/uL
- ABSOLUTE SEGMENTED NEUTROPHIL [2]: 300 CELLS/uL
- BASOPHIL [2]: 0%
- EOSINOPHIL [2]: 0%
- ERYTHROCYTE COUNT [2]: 4.81 x10E6/uL
- HEMATOCRIT [2]: 32.3%
- HEMOGLOBIN [2]: 12.6 G/DL
- LEUKOCYTE COUNT [2]: 9 x10E3/uL
- LYMPHOCYTE [2]: 96%
- MEAN CORPUSCULAR HEMOGLOBIN [2]: 26.2 pg
- MEAN CORPUSCULAR HEMOGLOBIN CONCENTRATION [2]: 39 G/DL
- MEAN CORPUSCULAR VOLUME [2]: 67.17 fL
- MONOCYTE [2]: 0.67%
- NEUTROPHIL [2]: 3.33%
- NUCLEATED RED BLOOD CELLS [2]: 0.33 /100WBC
- PLATELET COUNT [2]: 1141.33 x10E3/uL
- ALANINE AMINOTRANSFERASE [2]: 32.67 u/L
- ALBUMIN [2]: 4.13 G/DL
- ALKALINE PHOSPHATASE [2]: 373.33 u/L
- ASPARTATE AMINOTRANSFERASE [2]: 70.33 u/L
- BLOOD UREA NITROGEN [2]: 14.33 mg/dL
- CARBON DIOXIDE [2]: 28.67 mmol/L
- CHLORIDE [2]: 102.33 MEQ/L
- CHOLESTEROL [2]: 78.67 mg/dL
- CREATINE PHOSPHOKINASE [2]: 199.67 u/L
- CREATININE [2]: 0.16 mg/dL
- GLUCOSE [2]: 161.67 mg/dL
- LACTATE DEHYDROGENASE [2]: 310.33 u/L
- LIPASE [2]: 9.67 u/L
- PHOSPHORUS [2]: 11.63 mg/dL
- POTASSIUM [2]: 6.25 MEQ/L
- SODIUM [2]: 143.47 MEQ/L
- TOTAL BILIRUBIN [2]: 0.13 mg/dL
- TOTAL PROTEIN [2]: 5.6 G/DL
- URIC ACID [2]: 1.1 mg/dL
- ABSOLUTE BASOPHIL [3]: 0 CELLS/uL
- ABSOLUTE EOSINOPHIL [3]: 45.67 CELLS/uL
- ABSOLUTE LYMPHOCYTE [3]: 11569 CELLS/uL
- ABSOLUTE MONOCYTE [3]: 81.67 CELLS/uL
- ABSOLUTE SEGMENTED NEUTROPHIL [3]: 1037 CELLS/uL
- BASOPHIL [3]: 0%
- EOSINOPHIL [3]: 0.33%
- ERYTHROCYTE COUNT [3]: 4.9 x10E6/uL
- HEMATOCRIT [3]: 29.73%
- HEMOGLOBIN [3]: 12.17 G/DL
- LEUKOCYTE COUNT [3]: 12.73 x10E3/uL
- LYMPHOCYTE [3]: 91%
- MEAN CORPUSCULAR HEMOGLOBIN [3]: 24.83 pg
- MEAN CORPUSCULAR HEMOGLOBIN CONCENTRATION [3]: 40.93 G/DL
- MEAN CORPUSCULAR VOLUME [3]: 60.7 fL
- MONOCYTE [3]: 0.67%
- NEUTROPHIL [3]: 8%
- NUCLEATED RED BLOOD CELLS [3]: 0 /100WBC
- PLATELET COUNT [3]: 1576 x10E3/uL
- ALANINE AMINOTRANSFERASE [3]: 40.33 u/L
- ALBUMIN [3]: 4.33 G/DL
- ALKALINE PHOSPHATASE [3]: 290 u/L
- ASPARTATE AMINOTRANSFERASE [3]: 92.67 u/L
- BLOOD UREA NITROGEN [3]: 17.33 mg/dL
- CARBON DIOXIDE [3]: 27.33 mmol/L
- CHLORIDE [3]: 101 MEQ/L
- CHOLESTEROL [3]: 76.67 mg/dL
- CREATINE PHOSPHOKINASE [3]: 208.67 u/L
- CREATININE [3]: 0.15 mg/dL
- GLUCOSE [3]: 189.33 mg/dL
- LACTATE DEHYDROGENASE [3]: 215.33 u/L
- LIPASE [3]: 7 u/L
- PHOSPHORUS [3]: 12.23 mg/dL
- POTASSIUM [3]: 5.8 MEQ/L
- SODIUM [3]: 145 MEQ/L
- TOTAL BILIRUBIN [3]: 0.2 mg/dL
- TOTAL PROTEIN [3]: 6.07 G/DL
- URIC ACID [3]: 1.83 mg/dL
